Experimental data as given in the NIST ThermoML archive (doi:10.1016/j.tca.2005.08.007).
Numbers after ± are expanded uncertainties.

Assay: xn = mol fraction of the nth substance listed
Conditions: 298.15 K, 101 kPa, Liquid; for viscosity: Capillary tube (Ostwald / Ubbelohde) method; for mass density: Vibrating tube method

C1CCCCC1 [cyclohexane] + CCCCCC
Conditions	mass density [kg/m3]	viscosity [mPa·s]
x1 = 0.0397	655.8 ± 0.39	0.2833 ± 0.0033
x1 = 0.2011	674.91 ± 0.37	0.3282 ± 0.0037
x1 = 0.2776	683.97 ± 0.36	0.3485 ± 0.0038
x1 = 0.3617	693.92 ± 0.35	0.3778 ± 0.004
x1 = 0.4409	703.31 ± 0.34	0.4077 ± 0.0042
x1 = 0.5889	720.83 ± 0.32	0.4815 ± 0.0048
x1 = 0.6848	732.18 ± 0.3	0.5355 ± 0.0052
x1 = 0.7608	741.18 ± 0.29	0.5994 ± 0.0057
x1 = 0.8074	746.7 ± 0.28	0.6444 ± 0.006
x1 = 0.9205	760.09 ± 0.27	0.7507 ± 0.0068

C1CCCCC1 [cyclohexane] + Cc1ccccc1
Conditions	mass density [kg/m3]	viscosity [mPa·s]
x2 = 0.0721	777.43 ± 0.26	0.8574 ± 0.0077
x2 = 0.1813	784.63 ± 0.28	0.7693 ± 0.007
x2 = 0.2798	791.6 ± 0.3	0.7024 ± 0.0065
x2 = 0.3613	799.02 ± 0.31	0.651 ± 0.0062
x2 = 0.4416	806 ± 0.33	0.6116 ± 0.0059
x2 = 0.6003	820.17 ± 0.36	0.5532 ± 0.0055
x2 = 0.6784	827.33 ± 0.38	0.5329 ± 0.0053
x2 = 0.7615	834.61 ± 0.39	0.5181 ± 0.0053
x2 = 0.8396	843.41 ± 0.41	0.5029 ± 0.0052
x2 = 0.9202	853.16 ± 0.43	0.4976 ± 0.0052

CCCCCC [hexane] + Cc1ccccc1
Conditions	mass density [kg/m3]	viscosity [mPa·s]
x2 = 0.0406	657.47 ± 0.4	0.2774 ± 0.0033
x2 = 0.2028	690.93 ± 0.4	0.3073 ± 0.0035
x2 = 0.2804	706.95 ± 0.41	0.3185 ± 0.0036
x2 = 0.3596	723.29 ± 0.42	0.3272 ± 0.0037
x2 = 0.4423	740.35 ± 0.42	0.3421 ± 0.0038
x2 = 0.5997	772.81 ± 0.43	0.3812 ± 0.0042
x2 = 0.6757	788.5 ± 0.43	0.4028 ± 0.0044
x2 = 0.7597	805.83 ± 0.43	0.43 ± 0.0046
x2 = 0.8412	822.63 ± 0.44	0.4644 ± 0.0049
x2 = 0.9199	838.87 ± 0.44	0.499 ± 0.0052
